The values below come from patent publication US12044651B2, “Sensor device and methods” (SCENTIAN BIO LIMITED, priority 2016, dated 2024).

Holding throughout (type): binding
Assay [1] deals with T1, Or10a (Drosophila melanogaster, UniProt Q9VYZ1).
T1 sequence (Q9VYZ1 1-406): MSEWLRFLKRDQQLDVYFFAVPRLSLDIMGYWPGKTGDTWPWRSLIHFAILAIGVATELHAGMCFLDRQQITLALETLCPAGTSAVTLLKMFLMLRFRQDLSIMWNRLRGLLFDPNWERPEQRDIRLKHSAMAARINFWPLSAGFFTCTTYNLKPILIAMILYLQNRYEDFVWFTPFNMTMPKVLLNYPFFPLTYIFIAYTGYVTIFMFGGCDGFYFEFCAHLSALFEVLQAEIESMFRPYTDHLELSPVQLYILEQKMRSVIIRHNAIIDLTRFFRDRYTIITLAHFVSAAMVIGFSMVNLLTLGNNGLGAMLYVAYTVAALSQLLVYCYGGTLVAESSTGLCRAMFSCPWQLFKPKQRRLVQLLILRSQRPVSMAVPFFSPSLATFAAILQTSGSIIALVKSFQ
The assay can be described thus: CNT-FET sensor covalently functionalized with OR10a nanodiscs (Example 3). The note with it: for current response: increasing additions of ligand. Here is the method:
The dispersion was sonicated until a clear solution was obtained. The temperature was kept at 25° C. throughout the sonication process. The thiolpyridine solution was prepared by dissolving 10 mg of 2-Mercaptopyridine (99%, Sigma Aldrich) in 1 ml of methanol. The solution was spun coated on a polydimethylsiloxane (PDMS) surface at 2000 rpm for one minute. Before the spin coating process, the PDMS surface was cleaned by a 50 W Oxygen plasma for 1 minute to improve the wettability. The cleaned substrates were placed upside down on the PDMS surface for three minutes and washed in ethanol to remove the excess thiolpyridine molecules. Then the substrates were transferred into the CNT suspension and immersed into the suspension for 10 minutes. The samples were removed from the suspension and dipped into Ethanol for another 10 minutes to remove the thiolpyridine molecules in the SWNT network. The alignment markers were deposited by defining the markers by photolithography and thermal evaporation of 5 nm Chromium and 50 nm of Gold. The metal Lift off was done by acetone immersion for 15 minutes followed by an Isopropyl alcohol (IPA) wash and N2 blow dry. The result is a uniform thin film CNT network covering the entire substrate surface. The purification procedure is a variation on the one detailed in […] et al. 2013^14. […] The cell pellet was collected by centrifugation at 3800 g for 10 min at room temperature and then resuspended in 40 mL of resuspension buffer A (20 mM Tris/HCl pH 7.5, 100 mM NaCl, 1× protease inhibitor cocktail (Roche Diagnostics GmbH, Germany)), with 25 U/mL Benzonase, then lysed by two passes on an Emulsiflex C5 emulsifier (Avestin, Germany) at 10,000-15,000 psi. The sample was then centrifuged at 1000 g for 5 min to remove whole cells and nuclei. The supernatant was removed and spun at 100,000 g for 1 h at 4° C. The membrane pellet was resuspended in 40 mL of buffer A with 1% w/v detergent (Zwittergent 3-16) and rotated for 1 h at room temperature at 10 rpm. The sample was then centrifuged at 100,000 g for 1 h at 18° C. The supernatant was removed and loaded onto a 1 mL NiNTA column (GE Healthcare) where the zwittergent 3-16 detergent was exchanged to Fos-Choline 14 (FC-14). The column was washed in ten column volumes of buffer B (20 mM Tris/HCl pH 7.5, 3.6 mM FC-14) with 300 mM NaCl and 20 mM imidazole, and a further ten column volumes of buffer B with 100 mM NaCl and 50 mM imidazole. Protein was eluted with four column volumes buffer B with 100 mM NaCl and 500 mM imidazole. Purity was assessed on Coomassie stained SDS-PAGE gels and Western blotting. Purification was completed with a final size exclusion chromatography (SEC) step. […]

The target of assay [2] is T2, Or22a (Drosophila melanogaster, UniProt P81909).
T2 sequence (P81909 1-397): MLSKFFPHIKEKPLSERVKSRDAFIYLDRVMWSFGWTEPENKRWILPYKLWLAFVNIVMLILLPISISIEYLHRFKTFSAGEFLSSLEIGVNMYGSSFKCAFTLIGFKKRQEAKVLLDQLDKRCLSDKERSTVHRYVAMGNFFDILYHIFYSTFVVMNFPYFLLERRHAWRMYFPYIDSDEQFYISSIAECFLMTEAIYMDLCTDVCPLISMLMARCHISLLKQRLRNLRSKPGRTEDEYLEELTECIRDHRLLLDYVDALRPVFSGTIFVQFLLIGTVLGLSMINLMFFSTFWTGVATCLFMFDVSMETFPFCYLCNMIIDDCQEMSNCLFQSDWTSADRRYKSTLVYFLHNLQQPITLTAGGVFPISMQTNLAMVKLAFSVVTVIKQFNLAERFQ
Nature of the assay: EIS sensor, Or22a nanodiscs on gold electrode (Example 4).

The target in assay [3] is T2, Or22a. Nature of the assay: EIS sensor, Or22a liposomes on gold electrode, optimized conditions (Example 5).

With `CCC/C=C/C=O` [E2-hexenal], the current response result in assay [1] (nanodiscs 1:100 dilution) was “no response”. Besides, the “EIS response to control ligand” value in assay [2] was “do not respond”.
For the compound `CCCCCC(=O)OC` [methyl hexanoate], the LOD is reported as under 100 pM in assay [2] (EIS) and 10 fM in assay [3] (EIS).
For the compound `COC(=O)c1ccccc1O` [methyl salicylate], in assay [1] (nanodiscs 1:100 dilution), the limit of detection result is “below 1 fM” and the current response result is listed as “consistently large decreases”. Besides, the “concentration at which clear electronic response starts” value in assay [1] (real time current measurement mode) worked out at 1 fM. In addition, the “EIS response to control ligand” value in assay [3] is recorded as “do not respond”.
